Results: BindingDB's records for doi:10.1021/acs.jmedchem.7b00782 (Jadavpur University, 2018)

Assay: Inhibition of LAP (unknown origin)

SMILES | Ki
CC(C)CC(N)P(=O)(O)C(=O)N[C@H](CC(C)C)C(=O)O (some centres undefined) | 56 µM
CC(C)CC(N)B1OC(C)(C)C(C)(C)O1 (centres undefined) | 1.3 µM
CC(N)B1OC(C)(C)C(C)(C)O1 (centres undefined) | 90 µM
CC1(C)OB(C(N)Cc2ccccc2)OC1(C)C (centres undefined) | 0.05 µM
